Experimental data taken from paper PMC10044159, “Inhibitory effects of sulfenimides on human and bovine carbonic anhydrase enzymes” (Journal of Enzyme Inhibition and Medicinal Chemistry, 2023).

Columns and labels:
hCA-I = molecular target: T1, hCA-I (Homo sapiens, UniProt P00915); assay: CO2 hydratase assay (Wilbur-Anderson); type: biochemical
T1 construct: gene CA1
Description: CO2 hydratase assay (Wilbur-Anderson) on hCA-I

hCA-II = molecular target: T2, hCA-II (Homo sapiens, UniProt P00918); assay: CO2 hydratase assay (Wilbur-Anderson); type: biochemical
T2 construct: gene CA2
Description: CO2 hydratase assay (Wilbur-Anderson) on hCA-II

T1 sequence (P00915 2-261): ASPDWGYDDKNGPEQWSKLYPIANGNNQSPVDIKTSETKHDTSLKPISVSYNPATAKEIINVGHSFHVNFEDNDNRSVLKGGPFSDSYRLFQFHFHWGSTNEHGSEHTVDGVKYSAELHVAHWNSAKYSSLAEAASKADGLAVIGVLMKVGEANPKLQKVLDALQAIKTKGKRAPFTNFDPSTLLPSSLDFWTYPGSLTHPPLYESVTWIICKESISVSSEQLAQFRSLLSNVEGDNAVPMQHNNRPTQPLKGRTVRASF

Compound | Ki (hCA-I) | Ki (hCA-II)
COc1ccc(SN2C(=O)c3ccccc3C2=O)cc1 [1c] | 0.0379 µM | 0.06 µM
O=C1c2ccccc2C(=O)N1Sc1ccc([N+](=O)[O-])cc1 [1d] | 0.119 µM | 0.152 µM
O=C1c2ccccc2C(=O)N1Sc1ccc(Cl)cc1 [1e] | 0.0321 µM | 0.143 µM
O=C1c2ccccc2C(=O)N1Sc1ccc(Br)cc1 [1f] | 0.023 µM | 0.044 µM
O=C1c2ccccc2C(=O)N1SC1CCCCC1 [1h] | 0.0503 µM | 0.0617 µM

Other lines, results leading:

Ki (hCA-I) | Ki (hCA-II) | Compound
0.0585 µM | 0.0515 µM | O=C1c2ccccc2C(=O)N1Sc1ccccc1 [1a]
0.0408 µM | 0.052 µM | O=C1c2ccccc2C(=O)N1SCc1ccccc1 [1g]
0.0254 µM | 0.0546 µM | O=C1c2ccccc2C(=O)N1Sc1nc2ccccc2[nH]1 [1i]
